The text below walks through data of article PMC12812255 (ACS infectious diseases, 2025).

Values after ≈ are worked out from the molar mass of the structure shown. Like-named read-outs stand apart in the source and are kept apart here.

A word on the IC50: it is the point on the concentration scale where inhibition reaches its midpoint. In general, MIC refers to the lowest concentration found to suppress growth. For orientation: viability means a per cent measure of how many cells are alive, often set against a control.

The target of data set [1] is T1, MtbADSL (Mycobacterium tuberculosis, UniProt I6XWA1). Briefly: PPDK-luciferase coupling Mtb ADSL enzyme assay. The data set is classed as biochemical.
Data set [2] deals with T1, MtbADSL. Briefly: Fluorescence polarization. It counts as biochemical. Background: Fluorescence polarisation rises when a labelled molecule tumbles more slowly, as on binding a larger partner.
Data set [3] deals with T1, MtbADSL. Briefly: Protein thermal shift assay. The data set is classed as binding. The note with it: compound together with 4-HNE, 10 μM.
Data set [4] deals with intracellular Mtb H37Ra in RAW264.7 macrophages. Briefly: Phagocytosis assay, intracellular bacterial load in RAW264.7 macrophages.
Data set [5] deals with T1, MtbADSL. Briefly: AMP-Glo Mtb ADSL assay. The data set is classed as biochemical.
For data set [6], the system named is M. tuberculosis H37Ra. Briefly: Antibacterial susceptibility, broth dilution, AlamarBlue. The data set is classed as cell-based. Conditions: Mycobacterium tuberculosis, read-out: MIC H37Ra. On the technique in general: Broth dilution looks for growth in wells or tubes with falling amounts of substance.
Data set [7] has as its target T1, MtbADSL. The experiment in a line: Gel-based thermal shift assay. It counts as binding. The note with it: 15 or 30 μM compound, MtbADSL 5 μM.
Data set [8] deals with M. tuberculosis H37Rv. The experiment in a line: Antibacterial susceptibility, OD600, MIC estimated as EC90. It counts as cell-based. Conditions: Mycobacterium tuberculosis, read-out: MIC H37Rv (estimated by EC90).
Data set [9] has as its target coupling enzymes, PPDK and luciferase. Briefly: ADSL-free PPDK-luciferase coupling enzyme assay. The note with it: read-out: IC50 ADSL-free; no ADSL, AMP 10 μM as substrate. The data set is classed as biochemical, Clostridium symbiosum (PPDK); firefly (luciferase).
Data set [10] is described as follows: in vitro. Conditions: human, CC50 CCF-STTG1.
The nature of data set [11]: in vitro. Conditions: human.
Data set [12] has as its target T2, human ADSL (huADSL) (Homo sapiens, UniProt P30566).
T2 sequence (P30566 1-484): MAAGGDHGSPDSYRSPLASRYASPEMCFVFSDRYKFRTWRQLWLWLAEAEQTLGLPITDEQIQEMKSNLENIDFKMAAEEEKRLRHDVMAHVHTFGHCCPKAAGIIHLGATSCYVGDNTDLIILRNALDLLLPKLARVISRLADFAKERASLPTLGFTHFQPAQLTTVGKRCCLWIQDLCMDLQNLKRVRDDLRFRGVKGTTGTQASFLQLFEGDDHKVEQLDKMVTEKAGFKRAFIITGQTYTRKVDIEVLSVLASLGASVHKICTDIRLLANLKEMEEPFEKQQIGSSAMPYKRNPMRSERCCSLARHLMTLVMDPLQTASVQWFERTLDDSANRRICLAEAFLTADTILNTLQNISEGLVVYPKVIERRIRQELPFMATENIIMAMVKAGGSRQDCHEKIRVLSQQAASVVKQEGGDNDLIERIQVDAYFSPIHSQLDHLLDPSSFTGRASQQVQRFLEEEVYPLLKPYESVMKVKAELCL
The experiment in a line: Human ADSL PPDK-AMP assay. The data set is classed as biochemical. The note with it: for SI, selectivity index, IC50-human/IC50-Mtb: PPDK-coupling assay.

Data set [13] deals with Mycobacterium abscessus. Conditions: cited from earlier work.
Data set [14] can be described thus: Cytotoxicity CCK-8. The note with it: human, HEK293 cells.
In data set [15] the test system is Mtb H37Ra. The experiment in a line: AMP rescue assay. It counts as cell-based, Mycobacterium tuberculosis. Conditions: compound at MIC, AMP 0-5 mM, 7 days.
The test system of data set [16] is A549 cells. Briefly: Cytotoxicity CCK-8. Conditions: at the MIC determined for H37Rv.
Data set [17] in a line: Cytotoxicity CCK-8. Conditions: human.
The nature of data set [18]: Cytotoxicity CCK-8. Conditions: human, CCF-STTG1 cells, CC50 CCF-STTG1, 48 h.

For the compound `CCCCCC(O)/C=C/C=O` (stereo not shown) [4-HNE, 4-hydroxynonenal], the IC50 in [1] (read-out: IC50-Mtb PPDK, PPDK-luciferase coupling assay, SAMP 20 μM) amounted to 2.6 µM.
`O=C(O)Cc1cc(I)c(Oc2cc(I)c(O)c(I)c2)c(I)c1` [Tetrac, tetraiodothyroacetic acid]: the IC50 was 13 µM in data set [2]; 1.6 µM in data set [5]; 24.5 µM in [9]; 4.8 µM in data set [1]; 22.4 µM in data set [12]. For the same compound, the “Reduction of Tm on co-incubation with 4-HNE” value in data set [3] is ~ 0.6 °C. In addition, the figures for the “Reduction of intracellular Mtb growth” value in [4] (5 μM) and in data set [4] (15 μM) were ~ 1 log and ~ 2.5 log, respectively. The MIC was 6.2 µg/mL in data set [6] (168 h), 8.3 µM in data set [6] and 30 µM (≈ 22.4 µg/mL) in [8]. In addition, the “Protection of MtbADSL from heat-induced denaturation and aggregation” value in data set [7] is reported as “dose-dependent protection”. The compound also gave a CC50 at 48 h in [10] of over 200 µM. In data set [11], the viability at 48 h is about 71%. Moreover, in data set [12] (listed as TT), the “SI, selectivity index, IC50-human/IC50-Mtb” value amounted to 4.7.
Turning to `Oc1c(Cl)cc(Cl)cc1Sc1cc(Cl)cc(Cl)c1O` [bithionol], the “MIC against Mycobacterium abscessus” value in data set [13] is 0.625 to 2.5 µM. The CC50 at 48 h in data set [14] was 19.3 µM; in data set [17], 32.4 µM; in data set [18] it was about 139 µM. Also, the IC50 in data set [2] came out at 6.2 µM; in data set [5], 1.2 µM; in data set [9], 21.6 µM; in [1], 1.6 µM; in [12], 14.7 µM. Besides, in data set [15], the “AMP concentration at which growth is rescued” value is on record as 5.0 mM. For the same compound, the “Reduction of intracellular Mtb growth” value in [4] (5 μM) is reported as ~ 2.3 log; in [4] (15 μM) it was 4.6 log. Further, the “Reduction of A549 cell viability” value in data set [16] is listed as ~ 45%. For the same compound, the MIC was 3.1 µg/mL in data set [6] (168 h), 8.7 µM in data set [6] and 28 µM (≈ 9.97 µg/mL) in data set [8]. Also, the “Protection of MtbADSL from heat-induced denaturation and aggregation” value in [7] is “dose-dependent protection”. Besides, the “SI, selectivity index, IC50-human/IC50-Mtb” value in data set [12] is reported as 9.2.
